# Marks after values point to notes of the source that are not given here.
# Columns and labels:
# [1] = Intrinsic stain removal (tooth whitening) on human enamel specimens, CIELAB colour readings; settings: for Total Change (ΔE) in Intrinsic Stain Scores: 20 ml, 30 minute intervals, mean ± SD, n = 8; for Dose-response of tooth whitening (ΔE): 0.20% to 0.01% solutions
# Description: In the following Examples, human permanent teeth with natural intrinsic stains were obtained from oral surgeons. Selection of appropriate teeth was based on the presence of intrinsic stain after removal of exogenous stains using methods known in the art involving use of rubber cup polishing with an aqueous pumice slurry. A VITA® dental shade guide was used as a reference for tooth selection. Only specimens with a shade score of A3 or darker after drying were used in these experiments. The test specimens were comprised of cylinders of human enamel 3 mm in diameter mounted in a 10-mm-diameter black acrylic base. The circular pieces of human enamel were cut using a 3-mm diamond core drill (Continental). In order to cut the enamel, the human teeth were first mounted in 2-cm square blocks of self-curing dental acrylic with the labial surface exposed. Each block was then clamped into a small vise and immersed in a container of water to prevent the enamel from burning during the cutting process. Each immersed tooth was positioned directly under and perpendicular to the diamond core drill bit mounted on the end of an electric drill press. At high speed, the diamond core drill was lowered onto the tooth and gentle pressure was applied as the bit cut through the enamel and dentin. The 3-mm piece of cut enamel was then removed from the end of the diamond core drill and embedded with the aid of a circular mold into black, self-curing dental acrylic, providing circular blocks 10 mm in diameter. This was done in such a manner that the areas of tooth substance exposed by the drilling process were sealed by the acrylic, while the 3-mm surface enamel was left exposed. The finished tooth specimens were examined under a dissecting microscope. Specimens with imperfections were discarded. Acceptable specimens were thoroughly rinsed with distilled water, and refrigerated in a humidor until use.
# In these experiments, stain on the teeth was measured using the following method. The amount of the intrinsic stain within the teeth was measured by taking color readings with a Minolta CM-503i Spectrophotometer with diffuse illumination/8° viewing angle and 3 mm aperture. Measurements over the entire visible color spectrum were obtained using the CIELAB (Commission Internationale de L'Eclairage, Recommendations on Uniform Color Spaces. Color Difference Equations. Psychometric color Terms, Suppl. 2 to CIE publication 15 (E-13.1) 1971/(TC-1.3), 1978, Paris: Bureau Central de la CIE, 1978) color scale. This scale quantifies color according to 3 parameters, L* (lightness-darkness value), a* (red-green chroma), and b* (yellow-blue chroma). In order to obtain reproducible readings, the enamel specimens were allowed to air-dry at room temperature for 30 minutes before color measurements were taken. When the specimens were exposed to air, the teeth became whiter as they dry within the first few minutes and the color parameters change dramatically, but stabilized after 30 minutes.
# Measurements were obtained by aligning the center of the circular 3-mm segment of enamel directly over the 3-mm-diameter targeting aperture of the Minolta spectrophotometer, which enabled accurate positioning of the specimens for each test. An average of 3 color readings using the L*a*b* scale were taken for each specimen.
# In this Example, methods of treating the tooth samples are described. Before treatment, the baseline L*a*b* color scores of the tooth specimens were determined and used to stratify the teeth samples into balanced groups of 8 specimens each. For testing, each tooth specimen was immersed in 20 ml of the respective test solution for 30 minutes. The test solutions were stirred at 60 rpm with a mechanical stirrer for the duration of the exposure.
# Following each 30-minute treatment period, the specimens were rinsed and then placed back into fresh test solution. […] As a control group, 8 teeth were similarly treated in distilled water. […]
# [2] = Hydrolysis of PAA standards in buffer (ABTS assay standard curve); assay type: physicochemical; settings: B(OH)3 buffer; standard concentrations in B(OH)3, pH 8.5 buffer
# Procedure: The standard curve was prepared as described below. A working stock of PAA was prepared by diluting 32% 10^4-fold to 0.4 mM in water (note: stock contained acetic acid). […] At ambient temperature, 50 to 100 uL of standard PAA dilution were added to 1 mL of the ABTS reagent. The solution was mixed well and incubated at ambient temperature for 3 minutes. The absorbance at 420 nm (or another chosen wavelength) was then measured.
# [3] = aqueous 1% (by weight) solution; ambient to oral range temperatures; cited from earlier work
# [4] = dilute 1% aqueous solution, cited from earlier work
smiles,measurement,setting,value
"OO [H2O2, hydrogen peroxide]",Total Change (ΔE) in Intrinsic Stain Scores,"[1]; 3% (positive control), Hour 1",6.21 ± 3.46^a
same,Total Change (ΔE) in Intrinsic Stain Scores,"[1]; 3% (positive control), Hour 2",7.15 ± 2.96^a
same,Total Change (ΔE) in Intrinsic Stain Scores,"[1]; 3% (positive control), Hour 4",7.28 ± 2.75^a
same,Total Change (ΔE) in Intrinsic Stain Scores,"[1]; 3% (positive control), Hour 8",7.48 ± 2.95^a
same,Total Change (ΔE) in Intrinsic Stain Scores,"[1]; 3% (positive control), Hour 10",7.77 ± 3.34^a
same,Total Change (ΔE) in Intrinsic Stain Scores,"[1]; 3% (positive control), Hour 12",9.00 ± 4.07^a
same,Total Change (ΔE) in Intrinsic Stain Scores,"[1]; 3% (positive control), Hour 14",9.68 ± 3.85^a
same,Total Change (ΔE) in Intrinsic Stain Scores,"[1]; 3% (positive control), Hour 16",10.68 ± 3.51^a
"CC(=O)OO [Peracetic Acid, peracetic acid]",half-life,[2],25 min
same,Whitening effect on teeth compared with 30% (by weight) aqueous hydrogen peroxide,[3],faster and superior whitening effect
same,Total Change (ΔE) in Intrinsic Stain Scores,"[1]; 0.01% in 100 mmolar phosphate buffer, Hour 1","2.98 ± 2.57^b,c,d"
same,Total Change (ΔE) in Intrinsic Stain Scores,"[1]; 0.01% in 100 mmolar phosphate buffer, Hour 2",4.06 ± 2.51^b
same,Total Change (ΔE) in Intrinsic Stain Scores,"[1]; 0.01% in 100 mmolar phosphate buffer, Hour 4",4.09 ± 2.33^b
same,Total Change (ΔE) in Intrinsic Stain Scores,"[1]; 0.01% in 100 mmolar phosphate buffer, Hour 8",5.11 ± 2.71^a
same,Total Change (ΔE) in Intrinsic Stain Scores,"[1]; 0.01% in 100 mmolar phosphate buffer, Hour 10",5.88 ± 2.55^a
same,Total Change (ΔE) in Intrinsic Stain Scores,"[1]; 0.01% in 100 mmolar phosphate buffer, Hour 12",6.79 ± 3.23^a
same,Total Change (ΔE) in Intrinsic Stain Scores,"[1]; 0.01% in 100 mmolar phosphate buffer, Hour 14",7.13 ± 3.14^a
same,Total Change (ΔE) in Intrinsic Stain Scores,"[1]; 0.01% in 100 mmolar phosphate buffer, Hour 16",7.57 ± 3.05^a
same,Total Change (ΔE) in Intrinsic Stain Scores,"[1]; 0.05% in 100 mmolar phosphate buffer, Hour 1","3.41 ± 2.19^b,c,d"
same,Total Change (ΔE) in Intrinsic Stain Scores,"[1]; 0.05% in 100 mmolar phosphate buffer, Hour 2",3.83 ± 1.81^b
same,Total Change (ΔE) in Intrinsic Stain Scores,"[1]; 0.05% in 100 mmolar phosphate buffer, Hour 4",4.72 ± 1.67^b
same,Total Change (ΔE) in Intrinsic Stain Scores,"[1]; 0.05% in 100 mmolar phosphate buffer, Hour 8",5.04 ± 1.72^a
same,Total Change (ΔE) in Intrinsic Stain Scores,"[1]; 0.05% in 100 mmolar phosphate buffer, Hour 10",6.08 ± 1.25^a
same,Total Change (ΔE) in Intrinsic Stain Scores,"[1]; 0.05% in 100 mmolar phosphate buffer, Hour 12",6.55 ± 1.79^a
same,Total Change (ΔE) in Intrinsic Stain Scores,"[1]; 0.05% in 100 mmolar phosphate buffer, Hour 14",6.82 ± 1.91^a
same,Total Change (ΔE) in Intrinsic Stain Scores,"[1]; 0.05% in 100 mmolar phosphate buffer, Hour 16",7.72 ± 2.15^a
same,Total Change (ΔE) in Intrinsic Stain Scores,"[1]; 0.10% in 100 mmolar phosphate buffer, Hour 1","5.60 ± 2.69^a,b"
same,Total Change (ΔE) in Intrinsic Stain Scores,"[1]; 0.10% in 100 mmolar phosphate buffer, Hour 2","5.38 ± 1.75^a,b"
same,Total Change (ΔE) in Intrinsic Stain Scores,"[1]; 0.10% in 100 mmolar phosphate buffer, Hour 4","6.09 ± 2.52^a,b"
same,Total Change (ΔE) in Intrinsic Stain Scores,"[1]; 0.10% in 100 mmolar phosphate buffer, Hour 8",6.58 ± 2.94^a
same,Total Change (ΔE) in Intrinsic Stain Scores,"[1]; 0.10% in 100 mmolar phosphate buffer, Hour 10",7.05 ± 3.31^a
same,Total Change (ΔE) in Intrinsic Stain Scores,"[1]; 0.10% in 100 mmolar phosphate buffer, Hour 12",7.89 ± 3.47^a
same,Total Change (ΔE) in Intrinsic Stain Scores,"[1]; 0.10% in 100 mmolar phosphate buffer, Hour 14",8.71 ± 4.66^a
same,Total Change (ΔE) in Intrinsic Stain Scores,"[1]; 0.10% in 100 mmolar phosphate buffer, Hour 16",9.08 ± 4.24^a
same,Total Change (ΔE) in Intrinsic Stain Scores,"[1]; 0.20% in 100 mmolar phosphate buffer, Hour 1","5.31 ± 1.75^a,b,c"
same,Total Change (ΔE) in Intrinsic Stain Scores,"[1]; 0.20% in 100 mmolar phosphate buffer, Hour 2",6.60 ± 2.37^a
same,Total Change (ΔE) in Intrinsic Stain Scores,"[1]; 0.20% in 100 mmolar phosphate buffer, Hour 4",7.37 ± 2.85^a
same,Total Change (ΔE) in Intrinsic Stain Scores,"[1]; 0.20% in 100 mmolar phosphate buffer, Hour 8",7.54 ± 2.34^a
same,Total Change (ΔE) in Intrinsic Stain Scores,"[1]; 0.20% in 100 mmolar phosphate buffer, Hour 10",7.72 ± 3.12^a
same,Total Change (ΔE) in Intrinsic Stain Scores,"[1]; 0.20% in 100 mmolar phosphate buffer, Hour 12",8.53 ± 3.65^a
same,Total Change (ΔE) in Intrinsic Stain Scores,"[1]; 0.20% in 100 mmolar phosphate buffer, Hour 14",9.08 ± 3.81^a
same,Total Change (ΔE) in Intrinsic Stain Scores,"[1]; 0.20% in 100 mmolar phosphate buffer, Hour 16",9.34 ± 4.10^a
same,Tooth whitening (ΔE) compared with hydrogen peroxide positive control,"[1]; after 8 hours, ANOVA and SNK test, p < 0.05",statistically equivalent to the hydrogen peroxide positive control
same,Dose-response of tooth whitening (ΔE),[1]; during the first four hours of treatment,significant dose-response
same,Dose-response of tooth whitening (ΔE),[1]; up to 16 hours of treatment,numerical dose-response effect
same,Time to substantial decomposition,[4]; ambient temperatures,≥ 30 days
same,Storage stability,[4]; storage at 3° C.,significantly improves stability
